Reference: ChEMBL document CHEMBL2396642, “Discovery of novel series of 6-benzyl substituted 4-aminocarbonyl-1,4-diazepane-2,5-diones as human chymase inhibitors using structure-based drug design” (Bioorg Med Chem, 2013)

What was measured:
[1] = target: T1, Neutrophil elastase (Homo sapiens, UniProt P08246); assay: Inhibition of human neutrophil elastase using MeOSuc-Ala-Ala-Pro-Val-pNA as substrate preincubated for 10 mins followed by substrate addition measured after 10 mins by fluorescence assay
T1 sequence (P08246 whole entry): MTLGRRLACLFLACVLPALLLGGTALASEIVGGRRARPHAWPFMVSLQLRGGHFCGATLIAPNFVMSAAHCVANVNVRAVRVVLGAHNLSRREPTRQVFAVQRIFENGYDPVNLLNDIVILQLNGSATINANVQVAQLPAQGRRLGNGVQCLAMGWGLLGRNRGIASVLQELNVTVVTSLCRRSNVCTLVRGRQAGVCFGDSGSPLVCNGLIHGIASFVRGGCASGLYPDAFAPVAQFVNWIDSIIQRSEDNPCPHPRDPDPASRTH

[2] = target: T2, Cathepsin G (Homo sapiens, UniProt P08311); assay: Inhibition of human neutrophil cathepsin G using Boc-Gln-Ala-Arg-MCA as substrate preincubated for 10 mins followed by substrate addition measured after 10 mins by fluorescence assay
T2 sequence (P08311 whole entry): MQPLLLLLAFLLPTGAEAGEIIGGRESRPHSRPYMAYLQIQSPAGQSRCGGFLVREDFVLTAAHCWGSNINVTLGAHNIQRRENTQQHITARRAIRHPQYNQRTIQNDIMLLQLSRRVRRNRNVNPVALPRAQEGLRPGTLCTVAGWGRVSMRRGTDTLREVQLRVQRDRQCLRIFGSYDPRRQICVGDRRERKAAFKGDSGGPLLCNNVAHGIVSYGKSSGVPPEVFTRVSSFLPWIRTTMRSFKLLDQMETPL

[3] = Inhibition of bovine pancreatic alpha-chymotrypsin using Suc-Ala-Ala-Pro-Phe-MCA as substrate preincubated for 10 mins followed by substrate addition measured after 10 mins by fluorescence assay; design: species or system Bos taurus

IC50 [1]	IC50 [2]	IC50 [3]	SMILES
> 10 µM	8.5 µM	> 10 µM	CC[C@@H](NC(=O)N1CC(=O)NCC(Cc2cc(Cl)ccc2OC)C1=O)C(=O)Nc1cccc(C(=O)O)c1 (some centres undefined)
> 10 µM	> 10 µM	> 10 µM	CC[C@@H](NC(=O)N1CC(=O)NCC(Cc2cc(Cl)ccc2OC)C1=O)C(=O)Nc1cccc(N)c1 (some centres undefined)
> 100 µM	7.8 µM	> 88 µM	CC[C@@H](NC(=O)N1CC(=O)NC[C@@H](Cc2cc(Cl)ccc2OC)C1=O)c1cc(C(=O)O)co1

The remaining lines, values behind:

SMILES	IC50 [1]	IC50 [2]	IC50 [3]
CC[C@@H](NC(=O)N1CC(=O)NCC(Cc2cc(Cl)ccc2OC)C1=O)C(=O)Nc1nnn[nH]1 (some centres undefined)	> 10 µM	> 10 µM	> 10 µM
CC[C@@H](NC(=O)N1CC(=O)NC[C@@H](Cc2cc(Cl)ccc2OC)C1=O)c1ccc(C(=O)O)c(N)c1	100 µM	–	> 100 µM
